PMC11096781, “Population pharmacokinetics of intravenous daptomycin in critically ill patients: implications for selection of dosage regimens” (Frontiers in Pharmacology, 2024)
“Also recorded” adds a separate entry of the source.

Experiments:
[1] = Excerpt: Plasma samples were collected from patients who received an intravenous infusion of daptomycin in the intensive care unit (ICU) of Zhongnan Hospital of Wuhan University from April 2021 to December 2022 according to the inclusion and exclusion criteria and the clinical sample sampling protocol for blood drug concentration testing. Patients who fulfilled the following criteria were eligible: ≥18 years old; treated with daptomycin for proven/probable infections caused by Gram-positive organisms that were unresponsive or intolerant to other antimicrobial agents. The exclusion criteria were pregnancy, known or suspected hypersensitivity to daptomycin and its excipients, and incomplete or missing laboratory data before and after treatment.
Daptomycin (Jiangsu Hengrui Medicine Co., Ltd.) dissolved in 100 mL normal saline was administered as a 30-min infusion. The daptomycin dose was 500 mg every 24 h. To obtain a complete blood drug concentration time curve after administration, we took into account the equilibrium phase (near peak concentration) and elimination phase of the drug in the design of sampling time points. On the first day of administration, blood samples were collected at 0, 0.5, 1, 2, 4, 8, 12, and 24 h after infusion. On the third day of administration, blood samples were collected before administration and at 0, 0.5, 1, 2, 4, 8, 12, and 24 h after infusion. On the fifth and seventh days, blood samples were collected before administration and at 0.5 and 4 h after infusion. Blood was drawn and allowed to clot in yellow blood-collecting tubes containing separating glue and a coagulant accelerator. Serum was collected by centrifugation and stored at −80°C until assayed. As soon as the study dose was administered, the participants were monitored for potential side effects. Serious adverse events were defined as adverse events related to daptomycin that required treatment discontinuation.
Serum daptomycin concentrations were measured using a high-performance liquid chromatography-tandem mass spectrometry method developed in our laboratory, the lower limit of quantification was 0.05 μg mL^−1. Briefly, serum samples were analyzed after protein precipitation. Daptomycin-d5 (Beijing Hager Biotechnology Co., Ltd.) was used as an internal standard. A Waters ACQUITY UPLC C8 column (2.1 mm × 50 mm, 1.7 μm) was used for separation. The mobile phase consisted of phase A: water (0.1% formic acid), phase B: 1:1 methanol: acetonitrile (0.1% formic acid) at a flow rate of 0.4 mL min^−1, column temperature of 45°C, injection volume of 2 μL, and analysis time of 4 min. Ion transitions were performed using positive electrospray ionization in the multiple reaction monitoring mode.
Before measurement, the sample was restored to room temperature, 100 μL of 1:1 methanol: acetonitrile was measured into a […] EP tube, then 10 μL of daptomycin-d5 with 40 μL of sample/standard/quality control was added, the sample was vortex shaken for 1 min, centrifuged at high speed for 8 min (14,500 r/min), and the supernatant was placed in a 96-well plate for the assay.
NONMEM (version 8.1; ICON Development Solutions, Hanover, MD, United States) was used to establish a population PK model for daptomycin and to perform Monte Carlo simulations ([Bauer et al., 2007]). The ADAPT-TRAN program was used for pre- and post-processing ([Savic et al., 2009]). This study explored one- and two-compartment models of population PK of daptomycin. The two-compartment, disposition model was parameterised in terms of total clearance (CL), volume of distribution in the central compartment (VC), volume of distribution in the peripheral compartment (VP), and intercompartmental clearance (Q). The first order conditional estimation with inter- and intra-subject variability interaction (FOCE-I) was employed for all model runs. The inter-individual variability (η) was described using lognormal distributions, and a mixed additive and proportional model was chosen for residual variability (Ɛ). […]

[2] = Monitoring of creatinine phosphokinase (CPK) and adverse reactions during treatment; assay type: in vivo, human; conditions: 64 critically ill patients, 500 mg q24h i.v., during the treatment period
Experimental: Demographic and clinical characteristics of the enrolled patients were also collected from the medical records, including age, sex, weight, diagnosis, comorbidities, outcome, combination of other drugs (including antimicrobials), daily complete blood counts, biochemical test results (including liver and renal function and creatinine phosphokinase (CPK)), and whether CRRT or ECMO therapy was performed. In addition, acute physiology and chronic health evaluation (APACHE) and sequential organ failure assessment (SOFA) scores were calculated for each patient to determine disease severity. The patient’s creatinine clearance (CLCR) was calculated according to the Cockcroft-Gault formula based on serum creatinine at steady state on day 3.
The daptomycin dose was 500 mg every 24 h.

[3] = cited from earlier work
[4] = bootstrap analysis with 1000 samples

CCCCCCCCCC(=O)N[C@@H](Cc1c[nH]c2ccccc12)C(=O)N[C@H](CC(N)=O)C(=O)N[C@@H](CC(=O)O)C(=O)N[C@@H]1C(=O)NCC(=O)N[C@@H](CCCN)C(=O)N[C@@H](CC(=O)O)C(=O)N[C@H](C)C(=O)N[C@@H](CC(=O)O)C(=O)NCC(=O)N[C@H](CO)C(=O)N[C@@H]([C@H](C)CC(=O)O)C(=O)N[C@@H](CC(=O)c2ccccc2N)C(=O)O[C@@H]1C [daptomycin, Daptomycin]
Q, bootstrap median [1, 4]: 2.086 L/h | VC, bootstrap median [1, 4]: 4.14 L | VP, bootstrap median [1, 4]: 3.527 L | CL, renal part: coefficient of CCR/54 in the final covariate model ([1]; human, in vivo): 0.148 L/h | CRRT clearance, bootstrap median ([1]; human, in vivo): 0.386 L/h | NR (no renal clearance), bootstrap median ([1]; human, in vivo): 0.231 L/h | Q ([1]; human, in vivo): 2.13 ± 0.17 L/h | R (renal clearance), bootstrap median ([1]; human, in vivo): 0.15 | R (renal clearance), final model estimate ([1]; human, in vivo): 0.152 | V1 ([1]; human, in vivo): 4.20 ± 0.19 L | V2 ([1]; human, in vivo): 3.67 ± 0.25 L | non-renal clearance rate (CLNR) of non-CRRT patients ([1]; human, in vivo): 0.23 ± 0.05 L/h | renal clearance part (CLR), coefficient × (CCR/54) ([1]; human, in vivo): 0.14 ± 0.035 | NR (no renal clearance), final model estimate ([1]; human, in vivo, iv): 0.229 L/h | Q (intercompartmental clearance), final model estimate ([1]; human, in vivo, iv): 2.09 L/h | VC (volume of distribution in the central compartment), final model estimate ([1]; human, in vivo, iv): 4.14 L | VP (volume of distribution in the peripheral compartment), final model estimate ([1]; human, in vivo, iv): 3.52 L | clearance ([1]; human, in vivo, iv): 6.43 mL/min | VP of males relative to females ([1]; sex as covariate in forward inclusion, not retained in the final model): approximately 1.4 times | CPK elevation or other adverse reactions related to daptomycin [2]: No increase in CPK or other adverse reactions; also recorded: no elevation of CPK associated with daptomycin was found | metabolism by liver enzymes ([3]; ref Dvorchik et al., 2004): not metabolized by liver enzymes | eliminated by the kidneys ([3]; ref Enoch et al., 2007): 78% | half-life ([3]; ref Hawkey, 2008): approximately 8 h
